According to patent US12065429B2, “Small molecule modulators of IL-17” (LEO Pharma A/S, priority 2022, dated 2024):
Values after ≈ are worked out from the molar mass of the structure shown.

Key:
Solubility assay = format: physicochemical; conditions: aqueous buffer, kinetic from dmso stock; 0.067 M phosphate buffer pH 6.5, 24 hours shaking, from 10 mM DMSO stock
Description: After centrifugation, the supernatant was analyzed by HPLC-UV. The solubility was defined as the concentration of the test substance in the selected solvent. It was determined by correlation with an external standard calibration curve.

[1] = Human liver microsome (HLM) clearance assay; format: in vitro ADME; conditions: human liver microsomes 0.5 mg/mL, NADPH 1 mM, 0.5 μM compound, 40 min
Description: Example 63: Human Liver Microsome (HLM) Clearance Assay
Samples were taken out before addition of NADPH, and at 5, 10, 20 and 40 minutes thereafter and protein precipitation using cold acetonitrile with added internal standard was performed prior to centrifugation and sample analysis using compound specific LCMS/MS methods. Control incubations in buffer and without NADPH were performed in the same manner. Compound depletion was determined and apparent clearance (CLapp) was calculated.

solubility at 24 h (Solubility assay) | HLM Clapp [1] | Structure (SMILES)
0.0065 mg/mL (≈ 12 µM) | <0.48 L/h/kg | Cc1c(-c2ccc(NC(=O)[C@@H](NC(=O)c3ccnn3C(C)C)C(C3CC3)C3CC3)nc2F)cc(Cl)c[n+]1[O-] [Example 11, N-[(1S)-1-[[5-(5-chloro-2-methyl-1-oxido-pyridin-1-ium-3-yl)-6-fluoro-2-pyridyl]carbamoyl]-2,2-dicyclopropyl-ethyl]-2-isopropyl-pyrazole-3-carboxamide]
0.026 mg/mL (≈ 49.6 µM) | <0.48 L/h/kg | Cc1c(-c2ccc(NC(=O)[C@@H](NC(=O)c3ccnn3C(C)C)C(C3CC3)C3CC3)nc2F)cc(F)c[n+]1[O-] [Example 2, N-[(1S)-1-(dicyclopropylmethyl)-2-[[6-fluoro-5-(5-fluoro-2-methyl-1-oxido-pyridin-1-ium-3-yl)-2-pyridyl]amino]-2-oxo-ethyl]-2-isopropyl-pyrazole-3-carboxamide]
0.004 mg/mL (≈ 7.68 µM) | <0.48 L/h/kg | Cc1c[n+]([O-])cc(-c2ccc(NC(=O)[C@@H](NC(=O)c3ccnn3C(C)C)C(C3CC3)C3CC3)nc2F)c1C [Example 52, N-[(1S)-1-(dicyclopropylmethyl)-2-[[5-(4,5-dimethyl-1-oxido-pyridin-1-ium-3-yl)-6-fluoro-2-pyridyl]amino]-2-oxo-ethyl]-2-isopropyl-pyrazole-3-carboxamide]
0.018 mg/mL (≈ 32.3 µM) | <0.48 L/h/kg | Cc1c(-c2ccc(NC(=O)[C@@H](NC(=O)c3ccnn3C(C)C)C(C3CC3)C3CC3)nc2F)cc(C(F)F)c[n+]1[O-] [Example 49, N-[(1S)-1-(dicyclopropylmethyl)-2-[[5-[5-(difluoromethyl)-2-methyl-1-oxido-pyridin-1-ium-3-yl]-6-fluoro-2-pyridyl]amino]-2-oxo-ethyl]-2-isopropyl-pyrazole-3-carboxamide]
0.008 mg/mL (≈ 14 µM) | 0.48 L/h/kg | Cc1c(-c2ccc(NC(=O)[C@@H](NC(=O)c3ccnn3C(C)C)C(C3CC3)C3CC3)nc2F)cc(OC(F)F)c[n+]1[O-] [Example 8, N-[(1S)-1-(dicyclopropylmethyl)-2-[[5-[5-(difluoromethoxy)-2-methyl-1-oxido-pyridin-1-ium-3-yl]-6-fluoro-2-pyridyl]amino]-2-oxo-ethyl]-2-isopropyl-pyrazole-3-carboxamide]
0.026 mg/mL (≈ 47.6 µM) | 0.84 L/h/kg | Cc1cc(-c2ccc(NC(=O)[C@@H](NC(=O)c3ccnn3C(C)C)C(C3CC3)C3CC3)nc2F)c(C2CC2)[n+]([O-])c1 [Example 13, N-[(1S)-2,2-dicyclopropyl-1-[[5-(2-cyclopropyl-5-methyl-1-oxido-pyridin-1-ium-3-yl)-6-fluoro-2-pyridyl]carbamoyl]ethyl]-2-isopropyl-pyrazole-3-carboxamide]
< 0.001 mg/mL | 0.6 L/h/kg | CC(C)n1nccc1C(=O)N[C@H](C(=O)Nc1ccc(-c2c[n+]([O-])cc(F)c2C(F)(F)F)c(F)n1)C(C1CC1)C1CC1 [Example 50, N-[(1S)-1-(dicyclopropylmethyl)-2-[[6-fluoro-5-[5-fluoro-1-oxido-4-(trifluoromethyl)pyridin-1-ium-3-yl]-2-pyridyl]amino]-2-oxo-ethyl]-2-isopropyl-pyrazole-3-carboxamide]
0.009 mg/mL (≈ 16.3 µM) | 1.32 L/h/kg | CCOc1cc(-c2ccc(NC(=O)[C@@H](NC(=O)c3ccnn3C(C)C)C(C3CC3)C3CC3)nc2F)c(C)[n+]([O-])c1 [Example 10, N-[(1S)-1-(dicyclopropylmethyl)-2-[[5-(5-ethoxy-2-methyl-1-oxido-pyridin-1-ium-3-yl)-6-fluoro-2-pyridyl]amino]-2-oxo-ethyl]-2-isopropyl-pyrazole-3-carboxamide]
0.039 mg/mL (≈ 74.9 µM) | <0.48 L/h/kg | CCc1cc[n+]([O-])cc1-c1ccc(NC(=O)[C@@H](NC(=O)c2ccnn2C(C)C)C(C2CC2)C2CC2)nc1F [Example 53, N-[(1S)-1-(dicyclopropylmethyl)-2-[[5-(4-ethyl-1-oxido-pyridin-1-ium-3-yl)-6-fluoro-2-pyridyl]amino]-2-oxo-ethyl]-2-isopropyl-pyrazole-3-carboxamide]
0.06 mg/mL (≈ 118 µM) | <0.48 L/h/kg | Cc1c(-c2ccc(NC(=O)[C@@H](NC(=O)c3ccnn3C(C)C)C(C3CC3)C3CC3)nc2F)ccc[n+]1[O-] [Example 16, N-[(1S)-1-(dicyclopropylmethyl)-2-[[6-fluoro-5-(2-methyl-1-oxido-pyridin-1-ium-3-yl)-2-pyridyl]amino]-2-oxo-ethyl]-2-isopropyl-pyrazole-3-carboxamide]
0.026 mg/mL (≈ 48.4 µM) | <0.48 L/h/kg | Cc1cc(-c2ccc(NC(=O)[C@@H](NC(=O)c3ccnn3C(C)C)C(C3CC3)C3CC3)nc2Cl)c(C)[n+]([O-])c1 [Example 18, N-[(1S)-1-[[6-chloro-5-(2,5-dimethyl-1-oxido-pyridin-1-ium-3-yl)-2-pyridyl]carbamoyl]-2,2-dicyclopropyl-ethyl]-2-isopropyl-pyrazole-3-carboxamide]
0.025 mg/mL (≈ 46.1 µM) | <0.48 L/h/kg | CC(C)n1nccc1C(=O)N[C@H](C(=O)Nc1ccc(-c2c[n+]([O-])ccc2C(F)F)c(F)n1)C(C1CC1)C1CC1 [Example 51, N-[(1S)-1-(dicyclopropylmethyl)-2-[[5-[4-(difluoromethyl)-1-oxido-pyridin-1-ium-3-yl]-6-fluoro-2-pyridyl]amino]-2-oxo-ethyl]-2-isopropyl-pyrazole-3-carboxamide]
0.097 mg/mL (≈ 191 µM) | <0.48 L/h/kg | Cc1cc[n+]([O-])cc1-c1ccc(NC(=O)[C@@H](NC(=O)c2ccnn2C(C)C)C(C2CC2)C2CC2)nc1F [Example 15, N-[(1S)-1-(dicyclopropylmethyl)-2-[[6-fluoro-5-(4-methyl-1-oxido-pyridin-1-ium-3-yl)-2-pyridyl]amino]-2-oxo-ethyl]-2-isopropyl-pyrazole-3-carboxamide]
0.006 mg/mL (≈ 10.4 µM) | <0.48 L/h/kg | Cc1c(-c2ccc(NC(=O)[C@@H](NC(=O)c3ccnn3C(C)C)C(C3CC3)C3CC3)nc2F)cc(C(F)(F)F)c[n+]1[O-] [Example 12, N-[(1S)-1-(dicyclopropylmethyl)-2-[[6-fluoro-5-[2-methyl-1-oxido-5-(trifluoromethyl)pyridin-1-ium-3-yl]-2-pyridyl]amino]-2-oxo-ethyl]-2-isopropyl-pyrazole-3-carboxamide]
0.023 mg/mL (≈ 41.5 µM) | <0.48 L/h/kg | Cc1c(-c2ccc(NC(=O)[C@@H](NC(=O)c3ccnn3C(C)C)C(C3CC3)C3CC3)nc2F)cc(OCF)c[n+]1[O-] [Example 9, N-[(1S)-1-(dicyclopropylmethyl)-2-[[6-fluoro-5-[5-(fluoromethoxy)-2-methyl-1-oxido-pyridin-1-ium-3-yl]-2-pyridyl]amino]-2-oxo-ethyl]-2-isopropyl-pyrazole-3-carboxamide]
< 0.001 mg/mL | 3.78 L/h/kg | Cc1c(-c2ccc(NC(=O)[C@@H](NC(=O)c3ccnn3C(C)C)C(C3CC3)C3CC3)nc2F)c(C(F)(F)F)cc[n+]1[O-] (single isomer, unassigned) [Example 54]
0.005 mg/mL (≈ 8.92 µM) | 0.84 L/h/kg | CC(C)n1nccc1C(=O)N[C@H](C(=O)Nc1ccc(-c2c[n+]([O-])ccc2C(F)(F)F)c(F)n1)C(C1CC1)C1CC1 [Example 6, N-[(1S)-1-(dicyclopropylmethyl)-2-[[6-fluoro-5-[1-oxido-4-(trifluoromethyl)pyridin-1-ium-3-yl]-2-pyridyl]amino]-2-oxo-ethyl]-2-isopropyl-pyrazole-3-carboxamide]
